Source: patent US9409884B2 (Rigel Pharmaceuticals, Inc., priority 2012, dated 2016)

These compounds were tested against AMPK (assay: AMPK activation, enzyme-linked immunosorbent assay). Conditions: Table 12, compounds of Table 5.
Format: biochemical
Summary of the method: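 AMPK activation by test compounds was measured by enzyme-linked immunosorbent assay.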

Row | SMILES | EC50 [nM]
1 | N#Cc1ccc(CN2CCC(Oc3cccc(C(=O)NC4CCN(Cc5ccccc5)CC4)c3)CC2)cc1 [Compound 5-50, N-(1-benzylpiperidin-4-yl)-3-(1-(4-cyanobenzyl)piperidin-4-yloxy)benzamide] | 1000 to 10000
2 | O=C(NC1CCN(Cc2ccccc2)CC1)c1cccc(OC2CCN(Cc3ccc(C(F)(F)F)cc3)CC2)c1 [Compound 5-52, N-(1-benzylpiperidin-4-yl)-3-(1-(4-(trifluoromethyl)benzyl)piperidin-4-yloxy)benzamide] | 1000 to 10000
3 | O=C(NC1CCN(Cc2ccccc2)CC1)c1cccc(OC2CCN(c3ccncc3)CC2)c1 [Compound 5-53, N-(1-benzylpiperidin-4-yl)-3-(1-(pyridin-4-yl)piperidin-4-yloxy)benzamide] | 10000 to 20000
4 | CN1CCC(NC(=O)c2ccc(OC3CCN(Cc4ccc(C(F)(F)F)cc4)CC3)c(Cl)c2)CC1 [Compound 5-58, 3-chloro-N-(1-methylpiperidin-4-yl)-4-(1-(4-(trifluoromethyl)benzyl)piperidin-4-yloxy)benzamide] | 1000 to 10000
5 | O=C(NC1CCN(Cc2ccccc2)CC1)c1ccc(OC2CCN(Cc3ccc(F)cc3)CC2)c(F)c1 [Compound 5-61, N-(1-benzylpiperidin-4-yl)-3-fluoro-4-(1-(4-fluorobenzyl)piperidin-4-yloxy)benzamide] | < 1000
6 | O=C(NC1CCN(Cc2ccccc2)CC1)c1cc(Cl)c(OC2CCN(Cc3cccc(C(F)(F)F)c3)CC2)c(Cl)c1 [Compound 5-62, N-(1-benzylpiperidin-4-yl)-3,5-dichloro-4-(1-(3-(trifluoromethyl)benzyl)piperidin-4-yloxy)benzamide] | < 1000
7 | O=C(NC1CCN(Cc2ccccc2)CC1)c1ccc(OC2CCN(Cc3ccc(OC(F)(F)F)cc3)CC2)cc1 [Compound 5-63, N-(1-benzylpiperidin-4-yl)-4-(1-(4-(trifluoromethoxy)benzyl)piperidin-4-yloxy)benzamide] | < 1000
8 | O=C(NC1CCN(Cc2ccccc2)CC1)c1ccc(OC2CCN(Cc3ccc(Cl)cc3)CC2)c(F)c1 [Compound 5-64, N-(1-benzylpiperidin-4-yl)-4-(1-(4-chlorobenzyl)piperidin-4-yloxy)-3-fluorobenzamide] | < 1000
9 | O=C(NC1CCN(Cc2ccccc2)CC1)c1ccc(OC2CCN(Cc3ccc(Cl)cc3)CC2)c(Cl)c1 [Compound 5-65, N-(1-benzylpiperidin-4-yl)-3-chloro-4-(1-(4-chlorobenzyl)piperidin-4-yloxy)benzamide] | < 1000
10 | O=C(NC1CCN(Cc2ccc(F)cc2)CC1)c1ccc(OC2CCN(Cc3ccc(Cl)cc3)CC2)c(Cl)c1 [Compound 5-66, 3-chloro-4-(1-(4-chlorobenzyl)piperidin-4-yloxy)-N-(1-(4-fluorobenzyl)piperidin-4-yl)benzamide] | < 1000
11 | N#Cc1ccc(CN2CCC(Oc3ccc(C(=O)NC4CCN(Cc5ccccc5)CC4)cc3Cl)CC2)cc1 [Compound 5-67, N-(1-benzylpiperidin-4-yl)-3-chloro-4-(1-(4-cyanobenzyl)piperidin-4-yloxy)benzamide] | < 1000
12 | Cc1ccc(CN2CCC(Oc3ccc(C(=O)NC4CCN(Cc5ccc(F)cc5)CC4)cc3Cl)CC2)cc1 [Compound 5-68, 3-chloro-N-(1-(4-fluorobenzyl)piperidin-4-yl)-4-(1-(4-methylbenzyl)piperidin-4-yloxy)benzamide] | < 1000
13 | O=C(NC1CCN(Cc2ccccc2)CC1)c1ccc(OC2CCN(Cc3ccc(F)c(F)c3)CC2)c(F)c1 [Compound 5-69, N-(1-benzylpiperidin-4-yl)-4-(1-(3,4-difluorobenzyl)piperidin-4-yloxy)-3-fluorobenzamide] | < 1000
14 | N#Cc1ccc(CN2CCC(Oc3ccc(C(=O)NC4CCN(Cc5ccc(Cl)cc5)CC4)cc3F)CC2)cc1 [Compound 5-70, N-(1-(4-chlorobenzyl)piperidin-4-yl)-4-(1-(4-cyanobenzyl)piperidin-4-yloxy)-3-fluorobenzamide] | < 1000
15 | O=C(NC1CCN(Cc2ccc(Cl)cc2)CC1)c1ccc(OC2CCN(Cc3ccc(F)c(F)c3)CC2)c(F)c1 [Compound 5-71, N-(1-(4-chlorobenzyl)piperidin-4-yl)-4-(1-(3,4-difluorobenzyl)piperidin-4-yloxy)-3-fluorobenzamide] | < 1000
16 | O=C(NC1CCN(Cc2ccc(Cl)cc2)CC1)c1ccc(OC2CCN(Cc3ccc(Cl)cc3)CC2)c(F)c1 [Compound 5-72, N-(1-(4-chlorobenzyl)piperidin-4-yl)-4-(1-(4-chlorobenzyl)piperidin-4-yloxy)-3-fluorobenzamide] | < 1000
17 | Cc1ccc(CN2CCC(Oc3ccc(C(=O)NC4CCN(Cc5ccc(Cl)cc5)CC4)cc3F)CC2)cc1 [Compound 5-73, N-(1-(4-chlorobenzyl)piperidin-4-yl)-3-fluoro-4-(1-(4-methylbenzyl)piperidin-4-yloxy)benzamide] | < 1000
18 | O=C(NC1CCN(Cc2ccccc2)CC1)c1ccc(OC2CCN(Cc3ccc(F)c(F)c3)CC2)c(Cl)c1 [Compound 5-74, N-(1-benzylpiperidin-4-yl)-3-chloro-4-(1-(3,4-difluorobenzyl)piperidin-4-yloxy)benzamide] | < 1000
19 | O=C(NC1CCN(Cc2ccccc2)CC1)c1cc(Cl)c(OC2CCN(Cc3ccc(Cl)cc3)CC2)c(Cl)c1 [Compound 5-75, N-(1-benzylpiperidin-4-yl)-3,5-dichloro-4-(1-(4-chlorobenzyl)piperidin-4-yloxy)benzamide] | < 1000
20 | O=C(NC1CCN(Cc2ccccc2)CC1)c1cc(Cl)c(OC2CCN(Cc3ccc(F)c(F)c3)CC2)c(Cl)c1 [Compound 5-76, N-(1-benzylpiperidin-4-yl)-3,5-dichloro-4-(1-(3,4-difluorobenzyl)piperidin-4-yloxy)benzamide] | < 1000
21 | N#Cc1ccc(CN2CCC(Oc3c(Cl)cc(C(=O)NC4CCN(Cc5ccccc5)CC4)cc3Cl)CC2)cc1 [Compound 5-77, N-(1-benzylpiperidin-4-yl)-3,5-dichloro-4-(1-(4-cyanobenzyl)piperidin-4-yloxy)benzamide] | < 1000
22 | CC(C)(C)OC(=O)N1CCC(NC(=O)c2ccc(OC3CCN(Cc4ccc(C#N)cc4)CC3)cc2)CC1 [Compound 5-78, tert-butyl 4-(4-(1-(4-cyanobenzyl)piperidin-4-yloxy)benzamido)piperidine-1-carboxylate] | < 1000
23 | N#Cc1ccc(CN2CCC(Oc3ccc(C(=O)NC4CCNCC4)cc3)CC2)cc1 [Compound 5-79, 4-(1-(4-cyanobenzyl)piperidin-4-yloxy)-N-(piperidin-4-yl)benzamide] | > 100000

The remaining lines, values ahead:

Row | EC50 [nM] | SMILES
24 | < 1000 | N#Cc1ccc(N2CCC(Oc3ccc(C(=O)NC4CCN(Cc5ccncc5)CC4)cc3F)CC2)cc1 [Compound 5-44, 4-(1-(4-cyanophenyl)piperidin-4-yloxy)-3-fluoro-N-(1-(pyridin-4-ylmethyl)piperidin-4-yl)benzamide]
25 | < 1000 | N#Cc1ccc(CN2CCC(NC(=O)c3ccc(OC4CCN(c5ccc(C#N)cc5)CC4)c(F)c3)CC2)cc1 [Compound 5-45, N-(1-(4-cyanobenzyl)piperidin-4-yl)-4-(1-(4-cyanophenyl)piperidin-4-yloxy)-3-fluorobenzamide]
26 | < 1000 | O=C(NC1CCN(Cc2ccccc2)CC1)c1cccc(OC2CCN(c3ccc(C(F)(F)F)cc3)CC2)c1 [Compound 5-46, N-(1-benzylpiperidin-4-yl)-3-(1-(4-(trifluoromethyl)phenyl)piperidin-4-yloxy)benzamide]
27 | < 1000 | O=C(NC1CCN(Cc2ccccc2)CC1)c1ccc(OC2CCN(c3ccc(C(F)(F)F)cc3)CC2)cc1Cl [Compound 5-47, N-(1-benzylpiperidin-4-yl)-2-chloro-4-(1-(4-(trifluoromethyl)phenyl)piperidin-4-yloxy)benzamide]
28 | < 1000 | N#Cc1ccc(N2CCC(Oc3cccc(C(=O)NC4CCN(Cc5ccccc5)CC4)c3)CC2)cc1 [Compound 5-48, N-(1-benzylpiperidin-4-yl)-3-(1-(4-cyanophenyl)piperidin-4-yloxy)benzamide]
29 | < 1000 | N#Cc1ccc(N2CCC(Oc3ccc(C(=O)NC4CCN(Cc5ccccc5)CC4)c(Cl)c3)CC2)cc1 [Compound 5-49, N-(1-benzylpiperidin-4-yl)-2-chloro-4-(1-(4-cyanophenyl)piperidin-4-yloxy)benzamide]
30 | < 1000 | N#Cc1ccc(CN2CCC(Oc3ccc(C(=O)NC4CCN(Cc5ccccc5)CC4)c(Cl)c3)CC2)cc1 [Compound 5-51, N-(1-benzylpiperidin-4-yl)-2-chloro-4-(1-(4-cyanobenzyl)piperidin-4-yloxy)benzamide]
31 | < 1000 | O=C(NC1CCN(Cc2ccccc2)CC1)c1ccc(OC2CCN(Cc3ccc(OC(F)(F)F)cc3)CC2)c(Cl)c1 [Compound 5-54, N-(1-benzylpiperidin-4-yl)-3-chloro-4-(1-(4-(trifluoromethoxy)benzyl)piperidin-4-yloxy)benzamide]
32 | < 1000 | O=C(NC1CCN(Cc2ccccc2)CC1)c1ccc(OC2CCN(Cc3ccc(C(F)(F)F)cc3)CC2)c(F)c1 [Compound 5-55, N-(1-benzylpiperidin-4-yl)-3-fluoro-4-(1-(4-(trifluoromethyl)benzyl)piperidin-4-yloxy)benzamide]
33 | < 1000 | O=C(NC1CCN(Cc2ccccc2)CC1)c1ccc(OC2CCN(Cc3ccc(C(F)(F)F)cc3)CC2)c(Cl)c1 [Compound 5-56, N-(1-benzylpiperidin-4-yl)-3-chloro-4-(1-(4-(trifluoromethyl)benzyl)piperidin-4-yloxy)benzamide]
34 | < 1000 | O=C(NC1CCN(Cc2ccccc2)CC1)c1ccc(OC2CCN(Cc3ccc(OC(F)(F)F)cc3)CC2)c(F)c1 [Compound 5-57, N-(1-benzylpiperidin-4-yl)-3-fluoro-4-(1-(4-(trifluoromethoxy)benzyl)piperidin-4-yloxy)benzamide]
35 | < 1000 | O=C(NC1CCN(Cc2ccccc2)CC1)c1ccc(OC2CCN(Cc3cccc(C(F)(F)F)c3)CC2)c(F)c1 [Compound 5-59, N-(1-benzylpiperidin-4-yl)-3-fluoro-4-(1-(3-(trifluoromethyl)benzyl)piperidin-4-yloxy)benzamide]
36 | < 1000 | O=C(NC1CCN(Cc2ccccc2)CC1)c1ccc(OC2CCN(Cc3cccc(C(F)(F)F)c3)CC2)c(Cl)c1 [Compound 5-60, N-(1-benzylpiperidin-4-yl)-3-chloro-4-(1-(3-(trifluoromethyl)benzyl)piperidin-4-yloxy)benzamide]
